In patent US9783537B2, “3-(4-ethylnylphenyl) pyridopyrimidinone compounds and process for preparation thereof useful as potential anticancer agents” (Council of Scientific & Industrial Research, priority 2013, dated 2017):
Where two headings read alike, the source gives them in different places.

How the values were obtained:
HL-60(TB) = experiment: SRB 48 h growth assay, Leukemia HL-60(TB); format: cell-based, human
K-562 = experiment: SRB 48 h growth assay, Leukemia K-562; format: cell-based, human
RPMI-8226 = experiment: SRB 48 h growth assay, Leukemia RPMI-8226; format: cell-based, human; conditions: RPMI-8226, Leukemia; for GI50: Homo sapiens
HOP-62 = experiment: SRB 48 h growth assay, Non-small Cell Lung HOP-62; format: cell-based, human; conditions: HOP-62, Non-small Cell Lung; for GI50: Homo sapiens
HOP-92 = experiment: SRB 48 h growth assay, Non-small Cell Lung HOP-92; format: cell-based, human; conditions: HOP-92, Non-small Cell Lung
NCI-H322M = experiment: SRB 48 h growth assay, Non-small Cell Lung NCI-H322M; format: cell-based, human
COLO 205 = experiment: SRB 48 h growth assay, Colon COLO 205; format: cell-based, human; conditions: COLO 205, Colon
HCT-15 = experiment: SRB 48 h growth assay, Colon HCT-15; format: cell-based, human; conditions: HCT-15, Colon; for GI50: Homo sapiens
KM12 = experiment: SRB 48 h growth assay, Colon KM12; format: cell-based, human
SW-620 = experiment: SRB 48 h growth assay, Colon SW-620; format: cell-based, human; conditions: SW-620, Colon
SF-268 = experiment: SRB 48 h growth assay, CNS SF-268; format: cell-based, human; conditions: SF-268, CNS
SF-539 = experiment: SRB 48 h growth assay, CNS SF-539; format: cell-based, human; conditions: SF-539, CNS; for GI50: Homo sapiens
SNB-75 = experiment: SRB 48 h growth assay, CNS SNB-75; format: cell-based, human; conditions: SNB-75, CNS; for GI50: Homo sapiens
SK-MEL-5 = experiment: SRB 48 h growth assay, Melanoma SK-MEL-5; format: cell-based, human; conditions: SK-MEL-5, Melanoma
UACC-62 = experiment: SRB 48 h growth assay, Melanoma UACC-62; format: cell-based, human; conditions: UACC-62, Melanoma
OVCAR-4 = experiment: SRB 48 h growth assay, Ovarian OVCAR-4; format: cell-based, human; conditions: OVCAR-4, Ovarian
OVCAR-5 = experiment: SRB 48 h growth assay, Ovarian OVCAR-5; format: cell-based, human; conditions: OVCAR-5, Ovarian; for GI50: Homo sapiens
A498 = experiment: SRB 48 h growth assay, Renal A498; format: cell-based, human; conditions: for GI50: Homo sapiens
RXF393 = experiment: SRB 48 h growth assay, Renal RXF393; format: cell-based, human
TK-10 = experiment: SRB 48 h growth assay, Renal TK-10; format: cell-based, human; conditions: TK-10, Renal; for GI50: Homo sapiens
DU-145 = experiment: SRB 48 h growth assay, Prostate DU-145; format: cell-based, human; conditions: DU-145, Prostate; for GI50: Homo sapiens
MCF7 = experiment: SRB 48 h growth assay, Breast MCF7; format: cell-based, human; conditions: Homo sapiens
MDA-MB-231/ATCC = experiment: SRB 48 h growth assay, Breast MDA-MB-231/ATCC; format: cell-based, human
T-47D = experiment: SRB 48 h growth assay, Breast T-47D; format: cell-based, human; conditions: for GI50: Homo sapiens, T47D
[1] = test system: seven colon cancer cell line (COLO 205, HCC-2998, HCT-116, HCT-15, HT29, KM12 and SW-620); experiment: in vitro anticancer activity, colon panel; format: cell-based; conditions: Homo sapiens; seven colon cancer cell lines, exposure at least 48 h; read-out: GI50, range over panel
[2] = in vitro anticancer activity, melanoma panel; format: cell-based; conditions: Homo sapiens; nine melanoma cell lines, exposure at least 48 h; read-out: GI50, range over panel
[3] = Homo sapiens, read-out: Growth Inhibition GI50
[4] = Homo sapiens, read-out: Log10 GI50 (converted)
[5] = Homo sapiens, read-out: Log10 LC50 (converted)
[6] = read-out: Growth Inhibition GI50
[7] = read-out: Log10 GI50 (converted)

## C#Cc1ccc(-n2c(/C=C/c3ccc4ccccc4n3)nc3ncccc3c2=O)cc1 [4t, (E)-3-(4-Ethynylphenyl)-2-(2-(quinolin-2-yl)vinyl)pyrido[2,3-d]pyrimidin-4(3H)-one]
HL-60(TB)
  Log10 TGI50: −6.07
HL-60(TB); [3]
  GI50: 290 nM
HL-60(TB); [4]
  GI50: 295 nM
HL-60(TB); [5]
  CC50: > 100000 nM
K-562; Homo sapiens, K562, K-562, Leukemia, read-out: Growth Inhibition GI50
  GI50: 330 nM
K-562; Homo sapiens, K562, K-562, Leukemia, read-out: Log10 GI50 (converted)
  GI50: 331 nM
K-562; Homo sapiens, K562, K-562, Leukemia, read-out: Log10 LC50 (converted)
  CC50: > 100000 nM
K-562; K-562, Leukemia
  Log10 TGI50: >−4.00
RPMI-8226; [6]
  GI50: 260 nM
RPMI-8226; [7]
  GI50: 269 nM
RPMI-8226
  Log10 TGI50: −5.99
HOP-62
  Log10 TGI50: −5.72
HOP-62; [6]
  GI50: 460 nM
HOP-62; [7]
  GI50: 468 nM
HOP-92
  Log10 TGI50: −5.01
HOP-92; [3]
  GI50: 180 nM
HOP-92; [4]
  GI50: 186 nM
HOP-92; [5]
  CC50: > 100000 nM
NCI-H322M
  Log10 TGI50: −5.62
NCI-H322M; [3]
  GI50: 520 nM
NCI-H322M; [4]
  GI50: 525 nM
NCI-H322M; [5]
  CC50: > 100000 nM
COLO 205
  Log10 TGI50: −6.13
COLO 205; [3]
  GI50: 300 nM
COLO 205; [4]
  GI50: 302 nM
COLO 205; [5]
  CC50: 3630 nM
HCT-15
  Log10 TGI50: −5.88
HCT-15; [6]
  GI50: 320 nM
HCT-15; [7]
  GI50: 331 nM
KM12
  Log10 TGI50: −5.97
KM12; [3]
  GI50: 320 nM
KM12; [4]
  GI50: 324 nM
KM12; [5]
  CC50: 3470 nM
SW-620; [3]
  GI50: 350 nM
SW-620; [4]
  GI50: 355 nM
SW-620; [5]
  CC50: 3890 nM
SW-620
  Log10 TGI50: −5.90
SF-268; [3]
  GI50: 380 nM
SF-268; [4]
  GI50: 389 nM
SF-268; [5]
  CC50: > 100000 nM
SF-268
  Log10 TGI50: −5.74
SF-539; [6]
  GI50: 200 nM
SF-539; [7]
  GI50: 204 nM
SF-539
  Log10 TGI50: −6.29
SNB-75; [6]
  GI50: 330 nM
SNB-75; [7]
  GI50: 339 nM
SNB-75
  Log10 TGI50: −5.85
SK-MEL-5; [3]
  GI50: 170 nM
SK-MEL-5; [4]
  GI50: 178 nM
SK-MEL-5; [5]
  CC50: 759 nM
SK-MEL-5
  Log10 TGI50: −6.43
UACC-62; [3]
  GI50: 390 nM
UACC-62; [4]
  GI50: 398 nM
UACC-62; [5]
  CC50: 9330 nM
UACC-62
  Log10 TGI50: −5.67
OVCAR-4; [3]
  GI50: 330 nM
OVCAR-4; [4]
  GI50: 339 nM
OVCAR-4; [5]
  CC50: > 100000 nM
OVCAR-4
  Log10 TGI50: −5.46
OVCAR-5; [6]
  GI50: 310 nM
OVCAR-5; [7]
  GI50: 309 nM
OVCAR-5
  Log10 TGI50: −5.97
A498
  Log10 TGI50: −6.14
A498; [6]
  GI50: 220 nM
A498; [7]
  GI50: 229 nM
RXF393
  Log10 TGI50: −6.07
RXF393; Homo sapiens, RXF 393, read-out: Growth Inhibition GI50
  GI50: 250 nM
RXF393; Homo sapiens, RXF 393, read-out: Log10 GI50 (converted)
  GI50: 257 nM
RXF393; Homo sapiens, RXF 393, read-out: Log10 LC50 (converted)
  CC50: 5010 nM
TK-10; [6]
  GI50: 430 nM
TK-10; [7]
  GI50: 437 nM
TK-10
  Log10 TGI50: −5.82
DU-145
  Log10 TGI50: −6.15
DU-145; [6]
  GI50: 280 nM
DU-145; [7]
  GI50: 282 nM
MCF7; [6]
  GI50: 280 nM
MCF7; [7]
  GI50: 288 nM
MCF7; read-out: Log10 LC50 (converted)
  CC50: > 100000 nM
MDA-MB-231/ATCC
  Log10 TGI50: −5.93
MDA-MB-231/ATCC; [3]
  GI50: 330 nM
MDA-MB-231/ATCC; [4]
  GI50: 331 nM
MDA-MB-231/ATCC; [5]
  CC50: > 100000 nM
T-47D
  Log10 TGI50: −6.05
T-47D; [6]
  GI50: 290 nM
T-47D; [7]
  GI50: 295 nM
[1]
  GI50: 3550 to 52800 nM
[2]
  GI50: 1600 to 6300 nM
